# pIC50: −log10 of the molar value. Where a name gives a salt, the structure may show the parent alone.
# What was measured:
# Nav 1.5 [1] = molecular target: T1, Nav 1.5 (Homo sapiens (Human), UniProt Q14524); assay: Nav 1.5 IonWorks Quattro (IWQ) in vitro assay, population patch-clamp; details: read-out: Nav 1.5 (IWQ) IC50; 293 cells stably transfected with Nav 1.5; block at 26th pulse to −20 mV;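 also: HEK293 cells stably expressing Nav1.5, sodium current at the 26th of 26 pulses to −20 mV (150 ms, 5 Hz) after compound versus before, leak-corrected, 3–8 min exposure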
# Experimental: (§1) Nav 1.7 and Nav 1.5 Ion Works Quattro (IWQ) In Vitro Assays
# (§2) 293 cells stably transfected with either Nav 1.7 or with Nav 1.5 were recorded in population patch-clamp mode with the IonWorks® Quattro automated electrophysiology system in accordance with the manufacturer's specifications (Molecular Devices, LLC, Sunnyvale, Calif.). Sodium channel currents were measured in response to a train of depolarizations that induced successively greater inactivation.
# (§3) Cells were held at −110 mV for three seconds (Nav 1.7) or half a second (Nav 1.5) from a holding voltage of −15 mV, then put through a series of 26 pulses of 150 msec duration to −20 mV at a frequency of 5 Hz. Cells were then left unclamped for a period of 3 to 8 minutes while a single concentration of test compound was added. Cells were then reclamped and put through the same voltage protocol. Current at the end of the 26th pulse to −20 mV was subtracted from the peak current evoked by the 26th pulse to −20 mV to correct for leak current. Percent block was calculated for each concentration in duplicate, and IC50 curves were fitted to percent block as a function of concentration.
# Nav 1.7 [2] = molecular target: T2, Nav 1.7 (Homo sapiens (Human), UniProt Q15858); assay: Nav 1.7 in vitro PatchExpress (PX) assay, whole cell voltage clamp; format: cell-based; details: 293 cells stably transfected with human Nav1.7; partially inactivated state (20 to 50% inactivation)
# Experimental: Nav 1.7 In Vitro PatchExpress (PX) Assay
# 293 cells stably transfected with human Nav1.7 were recorded in whole cell voltage clamp mode with the PatchXpress automated electrophysiology system (Molecular Devices, LLC, Sunnyvale, Calif.). Compound effects were measured on a partially inactivated state of the sodium channel. Cells were clamped to a holding potential yielding 20 to 50% inactivation. To elicit sodium current, channels were activated by pulsing to −10 mV for 20 msec. This voltage protocol was repeated at a rate of 0.1 Hz throughout the experiment. A single concentration of test compound was applied to cells for a duration of 3 minutes. Peak sodium current was measured at the end of the compound addition period to determine percent inhibition.
# Nav 1.7 [3] = molecular target: T2, Nav 1.7; assay: Nav 1.7 IonWorks Quattro (IWQ) in vitro assay, population patch-clamp; format: cell-based; details: 293 cells stably transfected with Nav 1.7; block at 26th pulse to −20 mV;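 also: cells held at −110 mV for 3 s, then 26 pulses of 150 ms at 5 Hz, leak-corrected peak current, percent block measured before and after compound, 3–8 min exposure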
# Experimental: as §1, §2, §3
# Nav 1.5 [4] = molecular target: T1, Nav 1.5; assay: cell-based
# Experimental: as §1, §2, §3
# T1 sequence (Q14524 whole entry): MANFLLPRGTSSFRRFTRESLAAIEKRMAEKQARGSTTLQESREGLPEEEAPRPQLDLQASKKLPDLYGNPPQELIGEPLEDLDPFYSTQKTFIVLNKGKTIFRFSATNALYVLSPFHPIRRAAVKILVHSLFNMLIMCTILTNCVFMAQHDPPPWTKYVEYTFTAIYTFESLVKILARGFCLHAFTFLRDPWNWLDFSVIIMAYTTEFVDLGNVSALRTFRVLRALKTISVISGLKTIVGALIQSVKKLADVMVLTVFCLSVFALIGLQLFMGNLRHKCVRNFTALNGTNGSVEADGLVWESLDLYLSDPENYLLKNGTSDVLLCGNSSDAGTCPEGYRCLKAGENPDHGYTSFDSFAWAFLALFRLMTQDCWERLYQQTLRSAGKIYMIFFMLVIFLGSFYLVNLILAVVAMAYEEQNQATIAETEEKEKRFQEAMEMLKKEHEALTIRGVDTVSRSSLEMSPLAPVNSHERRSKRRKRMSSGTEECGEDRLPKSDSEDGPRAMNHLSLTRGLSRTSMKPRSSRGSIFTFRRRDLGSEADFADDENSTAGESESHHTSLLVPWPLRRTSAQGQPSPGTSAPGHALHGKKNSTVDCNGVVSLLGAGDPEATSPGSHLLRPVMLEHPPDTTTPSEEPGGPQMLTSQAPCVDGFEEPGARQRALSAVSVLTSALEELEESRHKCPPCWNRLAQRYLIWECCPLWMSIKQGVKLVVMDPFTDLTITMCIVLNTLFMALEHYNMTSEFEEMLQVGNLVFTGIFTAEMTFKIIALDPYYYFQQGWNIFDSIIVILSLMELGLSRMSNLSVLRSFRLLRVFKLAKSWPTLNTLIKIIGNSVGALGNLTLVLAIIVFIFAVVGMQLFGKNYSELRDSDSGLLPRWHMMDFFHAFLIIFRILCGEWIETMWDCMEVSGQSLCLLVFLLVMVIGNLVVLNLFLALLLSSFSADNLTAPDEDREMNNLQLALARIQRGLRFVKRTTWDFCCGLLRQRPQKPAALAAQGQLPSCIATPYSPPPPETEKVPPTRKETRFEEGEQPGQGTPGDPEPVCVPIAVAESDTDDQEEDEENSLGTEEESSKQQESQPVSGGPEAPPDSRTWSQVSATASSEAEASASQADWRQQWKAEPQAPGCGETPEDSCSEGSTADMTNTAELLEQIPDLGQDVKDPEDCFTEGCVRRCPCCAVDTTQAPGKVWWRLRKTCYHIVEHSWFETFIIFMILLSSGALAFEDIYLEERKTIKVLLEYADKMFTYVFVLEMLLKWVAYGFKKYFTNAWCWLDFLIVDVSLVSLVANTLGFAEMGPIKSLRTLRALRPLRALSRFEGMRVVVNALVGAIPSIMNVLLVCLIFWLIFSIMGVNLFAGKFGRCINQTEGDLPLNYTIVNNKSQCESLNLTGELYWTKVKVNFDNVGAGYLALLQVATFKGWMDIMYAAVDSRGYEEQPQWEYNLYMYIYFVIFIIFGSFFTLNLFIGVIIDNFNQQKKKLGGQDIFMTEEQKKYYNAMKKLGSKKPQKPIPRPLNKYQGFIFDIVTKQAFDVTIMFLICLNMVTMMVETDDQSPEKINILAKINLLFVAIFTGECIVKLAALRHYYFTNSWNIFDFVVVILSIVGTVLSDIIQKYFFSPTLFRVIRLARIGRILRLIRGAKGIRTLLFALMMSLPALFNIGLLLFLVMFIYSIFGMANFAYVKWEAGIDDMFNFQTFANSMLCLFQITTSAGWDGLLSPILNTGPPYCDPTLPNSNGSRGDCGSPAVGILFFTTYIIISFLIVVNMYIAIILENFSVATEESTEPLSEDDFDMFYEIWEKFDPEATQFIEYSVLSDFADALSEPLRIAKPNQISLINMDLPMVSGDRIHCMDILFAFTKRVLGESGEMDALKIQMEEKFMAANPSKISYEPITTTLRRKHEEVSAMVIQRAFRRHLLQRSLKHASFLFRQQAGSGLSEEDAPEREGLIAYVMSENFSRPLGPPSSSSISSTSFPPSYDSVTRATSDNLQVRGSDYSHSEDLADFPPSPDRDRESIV
# T2 sequence (Q15858 whole entry): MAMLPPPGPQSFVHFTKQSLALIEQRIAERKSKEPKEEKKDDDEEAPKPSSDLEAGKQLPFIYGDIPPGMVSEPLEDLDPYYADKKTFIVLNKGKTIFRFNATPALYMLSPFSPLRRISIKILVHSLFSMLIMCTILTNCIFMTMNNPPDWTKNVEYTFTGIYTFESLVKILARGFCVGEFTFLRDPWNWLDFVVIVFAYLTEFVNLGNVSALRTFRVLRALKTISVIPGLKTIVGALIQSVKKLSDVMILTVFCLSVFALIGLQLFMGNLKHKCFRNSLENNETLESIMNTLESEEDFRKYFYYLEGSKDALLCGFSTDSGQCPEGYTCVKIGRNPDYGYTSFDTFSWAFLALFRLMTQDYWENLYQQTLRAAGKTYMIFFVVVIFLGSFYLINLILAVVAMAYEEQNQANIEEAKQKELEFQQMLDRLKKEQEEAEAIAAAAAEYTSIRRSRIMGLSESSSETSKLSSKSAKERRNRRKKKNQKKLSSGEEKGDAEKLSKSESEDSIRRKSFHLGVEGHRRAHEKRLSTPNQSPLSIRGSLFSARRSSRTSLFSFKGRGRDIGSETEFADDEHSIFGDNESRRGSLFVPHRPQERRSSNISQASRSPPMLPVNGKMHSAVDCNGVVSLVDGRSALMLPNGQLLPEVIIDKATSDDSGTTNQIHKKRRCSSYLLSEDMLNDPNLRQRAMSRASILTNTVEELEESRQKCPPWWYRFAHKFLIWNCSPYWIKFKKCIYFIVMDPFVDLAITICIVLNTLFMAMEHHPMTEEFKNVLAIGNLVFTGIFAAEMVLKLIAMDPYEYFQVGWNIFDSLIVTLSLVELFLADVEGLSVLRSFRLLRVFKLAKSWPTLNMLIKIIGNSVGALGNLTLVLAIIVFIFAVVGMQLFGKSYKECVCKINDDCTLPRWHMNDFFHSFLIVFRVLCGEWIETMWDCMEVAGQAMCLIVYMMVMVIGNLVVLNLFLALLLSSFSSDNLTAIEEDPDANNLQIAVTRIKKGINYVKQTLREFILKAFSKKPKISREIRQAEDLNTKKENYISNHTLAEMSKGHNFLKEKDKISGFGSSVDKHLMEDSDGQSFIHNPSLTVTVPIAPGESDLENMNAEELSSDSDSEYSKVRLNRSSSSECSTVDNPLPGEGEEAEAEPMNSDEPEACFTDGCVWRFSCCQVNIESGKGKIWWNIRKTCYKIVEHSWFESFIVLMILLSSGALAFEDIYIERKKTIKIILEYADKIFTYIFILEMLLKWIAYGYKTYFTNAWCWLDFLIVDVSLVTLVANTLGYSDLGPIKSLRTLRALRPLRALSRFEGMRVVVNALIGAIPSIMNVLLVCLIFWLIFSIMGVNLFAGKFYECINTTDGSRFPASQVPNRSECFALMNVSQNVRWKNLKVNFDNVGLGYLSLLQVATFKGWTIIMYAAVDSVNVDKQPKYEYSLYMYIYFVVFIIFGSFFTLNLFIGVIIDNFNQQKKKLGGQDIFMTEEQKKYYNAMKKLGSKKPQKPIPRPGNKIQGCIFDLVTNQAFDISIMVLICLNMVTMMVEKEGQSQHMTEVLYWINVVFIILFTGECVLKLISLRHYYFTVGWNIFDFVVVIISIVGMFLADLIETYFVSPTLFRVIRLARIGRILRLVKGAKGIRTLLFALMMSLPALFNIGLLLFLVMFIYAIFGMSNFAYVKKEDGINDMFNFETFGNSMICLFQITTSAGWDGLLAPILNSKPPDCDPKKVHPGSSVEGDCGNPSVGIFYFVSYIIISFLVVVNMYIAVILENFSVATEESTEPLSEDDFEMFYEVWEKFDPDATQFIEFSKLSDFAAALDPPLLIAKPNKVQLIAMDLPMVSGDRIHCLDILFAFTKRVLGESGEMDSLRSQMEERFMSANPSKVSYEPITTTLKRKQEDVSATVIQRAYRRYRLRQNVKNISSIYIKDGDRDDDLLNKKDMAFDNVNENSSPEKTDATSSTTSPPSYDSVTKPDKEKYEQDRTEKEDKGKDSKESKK
SMILES,pIC50 (Nav 1.5 [1]),pIC50 (Nav 1.7 [2]),pIC50 (Nav 1.7 [3]),pIC50 (Nav 1.5 [4])
"CC(C)(C)OC(=O)N1CC=C(c2cc(C(F)(F)F)ccc2-c2cccc3c2CCN(S(=O)(=O)Nc2ncns2)C3)CC1 [Example 5, tert-Butyl 4-(2-(2-(N-(1,2,4-thiadiazol-5-yl)sulfamoyl)-1,2,3,4-tetrahydroisoquinolin-5-yl)-5-(trifluoromethyl)phenyl)-5,6-dihydropyridine-1(2H)-carboxylate]",5.25,5.77,5.99,
"O=S(=O)(Nc1ncns1)N1CCc2c(cccc2-c2ccc(C(F)(F)F)cc2C2=CCNCC2)C1 [Example 6, 5-(2-(1,2,3,6-Tetrahydropyridin-4-yl)-4-(trifluoromethyl)phenyl)-N-(1,2,4-thiadiazol-5-yl)-3,4-dihydroisoquinoline-2(1H)-sulfonamide hydrochloride]",< 5.00,7.52,7.66,
"O=S(=O)(Nc1ncns1)N1CCc2c(cccc2-c2ccc(Cl)cc2F)C1 [Example 11, 5-(4-Chloro-2-fluorophenyl)-N-(1,2,4-thiadiazol-5-yl)-3,4-dihydroisoquinoline-2(1H)-sulfonamide]",< 5.00,5.12,5.37,
"Cn1nccc1-c1cc(C(F)(F)F)ccc1-c1cccc2c1CCN(S(=O)(=O)Nc1ncccn1)C2 [Example 49, 5-(2-(1-Methyl-1H-pyrazol-5-yl)-4-(trifluoromethyl)phenyl)-N-(pyrimidin-2-yl)-3,4-dihydroisoquinoline-2(1H)-sulfonamide]",,4.84,4.90,< 5.00
"O=S(=O)(Nc1cnccn1)N1CCc2c(cccc2-c2ccc(C(F)(F)F)cc2C2=CCNCC2)C1 [Example 53, N-(Pyrazin-2-yl)-5-(2-(1,2,3,6-tetrahydropyridin-4-yl)-4-(trifluoromethyl)phenyl)-3,4-dihydroisoquinoline-2(1H)-sulfonamide hydrochloride]",< 5.00,,4.98,
"O=S(=O)(Nc1ccncn1)N1CCc2c(cccc2-c2ccc(C(F)(F)F)cc2Br)C1 [Example 56, 5-(2-Bromo-4-(trifluoromethyl)phenyl)-N-(pyrimidin-4-yl)-3,4-dihydroisoquinoline-2(1H)-sulfonamide]",,< 5.00,4.41,< 5.00
"CC(C)(C)OC(=O)N1CCc2c(cccc2-c2cccc3c2CCN(S(=O)(=O)Nc2ncns2)C3)C1 [Example 58, tert-Butyl 2′-(N-(1,2,4-thiadiazol-5-yl)sulfamoyl)-1′,2′,3,3′,4,4′-hexahydro-[5,5′-biisoquinoline]-2(1H)-carboxylate]",,4.78,4.80,< 5.00
"COc1cc(C(F)(F)F)ccc1-c1ncnc2c1CCN(S(=O)(=O)Nc1nccs1)C2 [Example 59, 4-(2-methoxy-4-(trifluoromethyl)phenyl)-N-(thiazol-2-yl)-5,6-dihydropyrido[3,4-d]pyrimidine-7(8H)-sulfonamide]",,5.98,7.06,< 5.00
"COc1cc(C(F)(F)F)ccc1-c1ncnc2c1CCN(S(=O)(=O)Nc1ncns1)C2 [Example 61, 4-(2-methoxy-4-(trifluoromethyl)phenyl)-N-(1,2,4-thiadiazol-5-yl)-5,6-dihydropyrido[3,4-d]pyrimidine-7(8H)-sulfonamide]",,5.92,6.85,< 5.00
